According to article PMC10820527, “Synthesis, Characterization, and Investigation of Anti-Inflammatory and Cytotoxic Activities of Novel Thiourea Derivatives of Naproxen” (Pharmaceutics, 2023):

Key:
HeLa = test: MTT cytotoxicity assay, HeLa; format: cell-based, human; settings: for IC50: mean ± SD
Experimental: Three cancer cell lines (MDA-MB-231, HCT116 and HeLa; i.e., human breast cancer cells, human colorectal cancer cells, and human cervical cancer cells, respectively), and one non-malignant fibroblast MRC-5 cell line (control) were used in this study. The American Type Cell Collection (ATCC, Manassas, VA, USA) provided all examined cell lines. The cells were grown in a complete medium made up of high-glucose DMEM media supplemented with 10% fetal bovine serum and […] L-glutamine (both from Sigma-Aldrich, USA). The cells were cultured in 25 cc flasks (Thermo Fischer Scientific, Waltham, MA, USA) at 37 °C with 100% humidity in a 5% CO2 atmosphere.
The MTT test was used to assess the cytotoxicity of compounds 1–14 [44]. The cytotoxicity of naproxen was also investigated due to its clinical use and structural similarity. Throughout the exponential development period, cells were taken from culture flasks and counted, and 5 × 10^3 cells/well were planted into 96-well culture plates. Following that, the cell lines were treated with varying doses of the investigated chemicals (1–14), naproxen ([…]), and fresh complete media as a control. All evaluated cells were incubated for 24, 48, and 72 h at 37 °C in an environment containing 5% CO2 and 100% humidity. Following incubation, each well’s culture media was taken out, each well received an addition of MTT solution at a final concentration of 0.5 mg/mL, and the cells were left to incubate for an additional four hours. The MTT solution was then withdrawn carefully, and the formazan crystals were dissolved in DMSO. After shaking the plates for 10 min, absorbance at 595 nm was measured using a multiplate reader (Zenyth 3100, Anthos Labtec Instruments, Salzburg, Austria). All concentrations of the tested compounds were performed in three separate wells of the microtiter plates and in three separate experiments. The results were reported as a ratio to the control value, untreated cells. IC50 values were also determined using Microsoft Office Excel 2021. The percentage of viable cells was estimated by dividing the readout absorbance value in the wells containing treated cells by the average absorbance value measured in the wells containing untreated cells, and multiplying the result by 100 [44]. % of the viable cells = ((absorbance of treated cell-absorbance of blank)/(absorbance of untreated cell-absorbance of blank)) × 100(3)

[1] = test system: carrageenan-induced rat paw edema; test: Carrageenan-induced rat paw edema model; format: in vivo; settings: for Rat Paw Thickness: mean ± SD; for inhibition in vivo at 2.5 mg/kg / inhibition in vivo at 5 mg/kg / inhibition in vivo at 10 mg/kg: Rattus norvegicus
Experimental: The Carrageenan-induced rat paw edema model was used to assess the anti-inflammatory potential of novel compounds 8–14. Induction of inflammation was performed in all animals by intraplantar injection of […] 0.5% carrageenan saline into the left hind paw.
Animals (n = 200) were randomly divided into the following groups: control groups, that received either 1% DMSO or naproxen, and experimental groups, that received the novel compounds 8–14.
Control groups included DMSO and naproxen groups. Rats belonging to the DMSO group received 1% DMSO in the same volume as the compounds 8–14, 60 min before carrageenan injection. Moreover, naproxen groups included rats that were subjected to naproxen treatment in three doses: 2.5 mg/kg, 5 mg/kg, and 10 mg/kg. Naproxen was applied in the same manner as 1% DMSO.
Experimental groups included rats that were treated with compounds 8–14 and they were divided into three subgroups depending on the applied dose: 2.5 mg/kg, 5 mg/kg, and 10 mg/kg. The examined compounds were dissolved in 1% DMSO prior to treatment and applied to rats 60 min before inducing inflammation, i.e., before carrageenan injection. Doses of naproxen and investigated compounds were defined based on our previously published research.
In order to quantify the anti-inflammatory effects of the tested compounds, left paw thickness was measured at specific time points: prior to inflammation induction (moment 0) and 1, 2, 3, and 4 h (moments 1, 2, 3, and 4) following carrageenan injection. Tissue thickness was measured in the middle of the rat paw using a Digital Vernier caliper (Aerospace, China). The percentage of inhibition of paw edema after treatment with different agents was calculated according to the formula, Equation (2):% Inhibition = 100 × [1 − (Yt/Yc)](2) where Yt = average increase in paw thickness in the treated group of rats between two measurement moments, and Yc = average increase in paw thickness in the untreated group of rats between two measurement moments.

[2] = 2.5 mg/kg, 1 h after carrageenan
[3] = 2.5 mg/kg, 2 h after carrageenan
[4] = 2.5 mg/kg, 3 h after carrageenan
[5] = 2.5 mg/kg, 4 h after carrageenan
[6] = 5.0 mg/kg, 1 h after carrageenan
[7] = 5.0 mg/kg, 2 h after carrageenan
[8] = 5.0 mg/kg, 3 h after carrageenan
[9] = 5.0 mg/kg, 4 h after carrageenan
[10] = 10.0 mg/kg, 1 h after carrageenan
[11] = 10.0 mg/kg, 2 h after carrageenan
[12] = 10.0 mg/kg, 3 h after carrageenan
[13] = 10.0 mg/kg, 4 h after carrageenan

Structure (SMILES)	IC50 (HeLa; Homo sapiens, HeLa, 24 h) [µM]	IC50 (HeLa; Homo sapiens, HeLa, 48 h) [µM]	IC50 (HeLa; Homo sapiens, HeLa, 72 h) [µM]	Rat Paw Thickness [1, 2] [mm]	Rat Paw Thickness [1, 3] [mm]	Rat Paw Thickness [1, 4] [mm]	Rat Paw Thickness [1, 5] [mm]	Rat Paw Thickness [1, 6] [mm]	Rat Paw Thickness [1, 7] [mm]	Rat Paw Thickness [1, 8] [mm]	Rat Paw Thickness [1, 9] [mm]	Rat Paw Thickness [1, 10] [mm]	Rat Paw Thickness [1, 11] [mm]	Rat Paw Thickness [1, 12] [mm]	Rat Paw Thickness [1, 13] [mm]	inhibition in vivo at 2.5 mg/kg ([1]; 2.5 mg/kg, 1 h) [%]	inhibition in vivo at 2.5 mg/kg ([1]; 2.5 mg/kg, 2 h) [%]	inhibition in vivo at 2.5 mg/kg ([1]; 2.5 mg/kg, 3 h) [%]	inhibition in vivo at 2.5 mg/kg ([1]; 2.5 mg/kg, 4 h) [%]	inhibition in vivo at 5 mg/kg ([1]; 5.0 mg/kg, 1 h) [%]	further results
COc1ccc2cc([C@H](C)C(=O)NC(=S)Nc3ccccc3)ccc2c1 [Compound 8, (S)-2-(6-methoxynaphthalen-2-yl)-N-(phenylcarbamothioyl)propanamide]	> 140	97.6 ± 10.9	9 ± 2	5.67 ± 0.15	5.43 ± 0.15	5.07 ± 0.21	4.53 ± 0.50	6.0 ± 0.36	5.8 ± 0.44	5.40 ± 0.44	4.96 ± 0.35	6.0 ± 0.40	5.60 ± 0.44	5.27 ± 0.38	5.07 ± 0.21	19.7	21.2	26.1	44.4	23.8	Cytotoxic effect against HeLa cells (in words) (HeLa): strong cytotoxic effects; IC50 (HeLa; 72 h): 9.1 ± 2.5 µM; inhibition in vivo at 5 mg/kg ([1]; 5.0 mg/kg, 2 h): 24.2%; inhibition in vivo at 5 mg/kg ([1]; 5.0 mg/kg, 3 h): 31.5%; inhibition in vivo at 5 mg/kg ([1]; 5.0 mg/kg, 4 h): 44.9%; inhibition in vivo at 10 mg/kg ([1]; 10.0 mg/kg, 1 h): 29.3%; inhibition in vivo at 10 mg/kg ([1]; 10.0 mg/kg, 2 h): 39.4%; inhibition in vivo at 10 mg/kg ([1]; 10.0 mg/kg, 3 h): 45.9%; inhibition in vivo at 10 mg/kg ([1]; 10.0 mg/kg, 4 h): 46.7%
COc1ccc2cc([C@H](C)C(=O)NC(=S)Nc3ccc(C)cc3)ccc2c1 [Compound 9, (S)-2-(6-methoxynaphthalen-2-yl)-N-(p-tolylcarbamothioyl)propanamide]	> 200	> 200	120 ± 8.7	6.60 ± 0.10	6.33 ± 0.06	5.97 ± 0.06	5.70 ± 0.26	6.53 ± 0.32	6.23 ± 0.23	5.90 ± 0.17	5.50 ± 0.36	6.20 ± 0.17	5.83 ± 0.29	5.33 ± 0.15	5.05 ± 0.09	25.2	28.8	35.1	37.8	22.4	inhibition in vivo at 5 mg/kg ([1]; 5.0 mg/kg, 2 h): 27.3%; inhibition in vivo at 5 mg/kg ([1]; 5.0 mg/kg, 3 h): 31.5%; inhibition in vivo at 5 mg/kg ([1]; 5.0 mg/kg, 4 h): 42.2%; inhibition in vivo at 10 mg/kg ([1]; 10.0 mg/kg, 1 h): 22.4%; inhibition in vivo at 10 mg/kg ([1]; 10.0 mg/kg, 2 h): 30.3%; inhibition in vivo at 10 mg/kg ([1]; 10.0 mg/kg, 3 h): 44.1%; inhibition in vivo at 10 mg/kg ([1]; 10.0 mg/kg, 4 h): 50%
